Like-named read-outs stand apart in the source and are kept apart here.
How the values were obtained:
[1] = biological target: T1, AHR (Homo sapiens, UniProt P35869); assay: In vitro assay 1: antagonism in human cell line (AHR transactivation, firefly luciferase reporter, kynurenic acid prestimulated); type: cell-based; conditions: AHR Antagonism Human IC50 [M]
T1 construct: U87 MG glioblastoma cells (ATCC #HTB-14) endogenously expressing AHR; endogenous in cells; host or cells: U87 MG glioblastoma cells (ATCC #HTB-14)
T1 sequence (P35869 11-848): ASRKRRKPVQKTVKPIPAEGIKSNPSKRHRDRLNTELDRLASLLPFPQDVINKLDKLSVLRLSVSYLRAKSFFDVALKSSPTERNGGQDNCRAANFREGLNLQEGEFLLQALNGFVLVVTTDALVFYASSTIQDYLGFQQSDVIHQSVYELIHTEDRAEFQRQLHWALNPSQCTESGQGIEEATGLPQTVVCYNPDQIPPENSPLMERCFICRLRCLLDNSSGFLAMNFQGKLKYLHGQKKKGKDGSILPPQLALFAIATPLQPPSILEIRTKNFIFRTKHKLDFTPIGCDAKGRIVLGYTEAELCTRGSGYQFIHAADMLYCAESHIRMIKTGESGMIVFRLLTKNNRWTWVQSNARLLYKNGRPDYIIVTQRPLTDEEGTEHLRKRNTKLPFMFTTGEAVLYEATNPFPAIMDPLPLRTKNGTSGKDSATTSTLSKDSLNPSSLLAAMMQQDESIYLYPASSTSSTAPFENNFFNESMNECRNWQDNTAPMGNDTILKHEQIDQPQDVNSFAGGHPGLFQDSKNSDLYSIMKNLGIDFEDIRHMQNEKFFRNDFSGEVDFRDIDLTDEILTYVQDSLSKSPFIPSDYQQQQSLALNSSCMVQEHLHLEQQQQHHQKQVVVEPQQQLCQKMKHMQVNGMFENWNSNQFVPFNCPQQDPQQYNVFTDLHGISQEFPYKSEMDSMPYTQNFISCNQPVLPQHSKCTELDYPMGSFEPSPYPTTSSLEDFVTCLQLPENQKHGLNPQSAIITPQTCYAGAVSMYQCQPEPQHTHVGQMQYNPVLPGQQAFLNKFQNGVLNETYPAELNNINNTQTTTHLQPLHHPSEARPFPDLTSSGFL
In short: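 Antagonism measured as loss of kynurenic acid-driven firefly luciferase from DRE reporter in stably transfected U87 MG cells; constitutive Renilla signal monitors cytotoxicity. Positive/negative control normalization, staurosporine 5 μM with 150 μM kynurenic acid as inhibition control; replicates given as mean or median.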

[2] = biological target: T2, AHR (Mus musculus, UniProt P30561); assay: In vitro assay 3: antagonism in mouse cell line (AHR transactivation, firefly luciferase reporter, kynurenic acid prestimulated); type: cell-based
T2 sequence (P30561 1-848 P471L/N533S/M589L): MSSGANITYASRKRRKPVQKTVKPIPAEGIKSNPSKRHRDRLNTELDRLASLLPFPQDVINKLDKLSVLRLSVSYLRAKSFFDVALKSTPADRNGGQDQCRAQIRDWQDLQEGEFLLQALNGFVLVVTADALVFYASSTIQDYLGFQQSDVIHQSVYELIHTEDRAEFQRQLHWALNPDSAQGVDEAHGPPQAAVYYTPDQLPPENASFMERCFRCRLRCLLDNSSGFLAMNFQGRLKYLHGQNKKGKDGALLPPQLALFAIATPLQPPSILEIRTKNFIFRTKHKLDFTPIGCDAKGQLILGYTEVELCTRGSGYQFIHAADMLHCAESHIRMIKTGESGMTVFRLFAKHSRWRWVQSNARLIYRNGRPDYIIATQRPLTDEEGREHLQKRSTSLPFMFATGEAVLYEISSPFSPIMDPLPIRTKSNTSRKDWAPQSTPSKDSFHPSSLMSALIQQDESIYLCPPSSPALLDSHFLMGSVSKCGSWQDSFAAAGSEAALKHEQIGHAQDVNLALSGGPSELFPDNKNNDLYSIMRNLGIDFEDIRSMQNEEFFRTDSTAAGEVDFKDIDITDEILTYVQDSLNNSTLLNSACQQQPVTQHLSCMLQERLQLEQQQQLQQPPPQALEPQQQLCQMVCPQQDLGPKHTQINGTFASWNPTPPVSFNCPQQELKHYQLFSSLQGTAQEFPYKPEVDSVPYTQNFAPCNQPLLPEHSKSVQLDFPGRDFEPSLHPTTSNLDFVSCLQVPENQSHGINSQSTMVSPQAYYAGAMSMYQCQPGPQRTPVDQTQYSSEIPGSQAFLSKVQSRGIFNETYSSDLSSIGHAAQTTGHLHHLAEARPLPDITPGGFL
In short: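 Kynurenic acid-prestimulated mouse reporter cells; stable AHR-inducible firefly luc construct with DRE sites in promoter. No-agonist wells = positive inhibition ctrl. Luminescence normalized to pos/neg ctrls; n>1 reported as mean or median.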

[3] = mouse Hepa 1c1c7 cells, 200 μM kynurenic acid, 20 hours, read-out: AHR Antagonism Mouse IC50
[4] = read-out: AHR Antagonism Mouse IC50, mouse Hepa 1c1c7 cells, 200 μM kynurenic acid, 20 hours
[5] = Hepa 1c1c7 cells, 200 μM kynurenic acid, 20 hours, firefly luciferase reporter, read-out: AHR Antagonism Mouse IC50

Row | SMILES | IC50 [1] [M] | IC50 [2, 3] [nM] | other results
1 | COc1ccc(-c2nc3c4cccc(C)c4nc(N[C@H]4CCCCNC4=O)n3n2)cc1 [Example 144] | > 2e-06 | 62.7 | –
2 | COc1ccc(-c2nc3c4cccc(Br)c4nc(N[C@@H]4CNCCNC4=O)n3n2)cc1 [Example 270, (6R)-6-{[7-bromo-2-(4-methoxyphenyl)[1,2,4]triazolo[1,5-c]quinazolin-5-yl]amino}-1,4-diazepan-5-one] | 7.93e-10 | 0.946 | –
3 | COc1ccc(-c2nc3c4cccc(O)c4nc(N[C@@H]4CCCCNC4=O)n3n2)cc1 [Example 669, (3R)-3-{[7-hydroxy-2-(4-methoxyphenyl)[1,2,4]triazolo[1,5-c]quinazolin-5-yl]amino}azepan-2-one] | 1.99e-09 | – | IC50 [2, 4]: 4.96 nM
4 | Cn1cc(-c2nc3c4c(C#N)cccc4nc(N[C@@H]4CCCCNC4=O)n3n2)cn1 [Example 247, 2-(1-methyl-1H-pyrazol-4-yl)-5-{[(3R)-2-oxoazepan-3-yl]amino}[1,2,4]triazolo[1,5-c]quinazoline-10-carbonitrile] | 3.08e-07 | 591 | –
5 | Cn1cc(-c2nc3c4cc(F)ccc4nc(N[C@@H]4CCCCNC4=O)n3n2)cn1 [Example 232, (3R)-3-{[9-fluoro-2-(1-methyl-1H-pyrazol-4-yl)[1,2,4]triazolo[1,5-c]quinazolin-5-yl]amino}azepan-2-one] | 8.83e-09 | – | IC50 [2, 4]: 3.88 nM
6 | O=C1NCCCC[C@@H]1Nc1nc2ccccc2c2nc(-c3cccc(OC(F)(F)F)c3)nn12 [Example 315, (3S)-3-({2-[3-(trifluoromethoxy)phenyl][1,2,4]triazolo[1,5-c]quinazolin-5-yl}amino)azepan-2-one] | 2.06e-07 | 50.8 | –
7 | COc1ccc(-c2nc3c4cccc(Br)c4nc(N[C@H](C)C(=O)N4CC5(COC5)C4)n3n2)cc1 [Example 916, (2R)-2-{[7-bromo-2-(4-methoxyphenyl)[1,2,4]triazolo[1,5-c]quinazolin-5-yl]amino}-1-(2-oxa-6-azaspiro[3.3]heptan-6-yl)propan-1-one] | – | – | IC50 ([1]; firefly luciferase reporter): 1.06e-09 M; IC50 ([2]; read-out: AHR Antagonism Mouse IC50, Hepa 1c1c7 cells, 200 μM kynurenic acid, 20 hours, firefly luciferase reporter): 2.22 nM
8 | COc1ccc(-c2nc3c4cccc(OCCC(C)(C)O)c4nc(N[C@@H]4CCCCNC4=O)n3n2)cc1 [Example 1000, (3R)-3-{[7-(3-hydroxy-3-methylbutoxy)-2-(4-methoxyphenyl)[1,2,4]triazolo[1,5-c]quinazolin-5-yl]amino}azepan-2-one] | – | – | IC50 ([1]; firefly luciferase reporter): 9.07e-09 M; IC50 [2, 5]: 8.3 nM
9 | CC[C@H](Nc1nc2ccccc2c2nc(-c3ccccc3OC(F)F)nn12)C(N)=O [Example 475, (2S)-2-({2-[2-(difluoromethoxy)phenyl][1,2,4]triazolo[1,5-c]quinazolin-5-yl}amino)butanamaide] | > 2e-05 | – | IC50 [2, 4]: 71.7 nM
10 | CCSc1cccc2c1nc(N[C@@H]1CNCCNC1=O)n1nc(-c3ccc(OC)cc3)nc21 [Example 939, (6R)-6-{[7-(ethylsulfanyl)-2-(4-methoxyphenyl)[1,2,4]triazolo[1,5-c]quinazolin-5-yl]amino}-1,4-diazepan-5-one] | – | – | IC50 ([1]; firefly luciferase reporter): 1.19e-08 M; IC50 [2, 5]: 22.5 nM
11 | O=C1NCCCC[C@H]1Nc1nc2ccccc2c2nc(-c3cc[nH]n3)nn12 [Example 62, (3R)-3-{[2-(1H-pyrazol-3-yl)[1,2,4]triazolo[1,5-c]quinazolin-5-yl]amino}azepan-2-one] | 1.11e-07 | 154 | –
12 | COc1ccc(-c2nc3c4cccc(Br)c4nc(N[C@@H](C(=O)N4CCN(C)CC4)C(C)C)n3n2)cc1 [Example 922, (2R)-2-{[7-bromo-2-(4-methoxyphenyl)[1,2,4]triazolo[1,5-c]quinazolin-5-yl]amino}-3-methyl-1-(4-methylpiperazin-1-yl)butan-1-one] | – | – | IC50 ([1]; firefly luciferase reporter): 2.47e-09 M; IC50 [2, 5]: 2.03 nM
13 | O=C1NCCCC[C@H]1Nc1nc2ccccc2c2nc(-c3nc(C(F)(F)F)no3)nn12 [Example 136, (3R)-3-({2-[3-(trifluoromethyl)-1,2,4-oxadiazol-5-yl][1,2,4]triazolo[1,5-c]quinazolin-5-yl}amino)azepan-2-one] | 3.09e-08 | 9.58 | –
14 | Cc1nn(C)cc1-c1nc2c3cccc(C(F)(F)F)c3nc(N[C@@H]3CNCCNC3=O)n2n1 [Example 975, (6R)-6-{[2-(1,3-dimethyl-1H-pyrazol-4-yl)-7-(trifluoromethyl)[1,2,4]triazolo[1,5-c]quinazolin-5-yl]amino}-1,4-diazepan-5-one] | – | – | IC50 ([1]; firefly luciferase reporter): 8.67e-10 M; IC50 [2, 5]: 4.24 nM

Second part, led by results:

Row | IC50 [1] [M] | IC50 [2, 3] [nM] | SMILES | other results
15 | 3e-07 | 2410 | COc1ccc(-c2nc3c4ccc(C(C)C)cc4nc(N[C@@H]4CCCCNC4=O)n3n2)cc1 [Example 395, (3R)-3-{[2-(4-Methoxyphenyl)-8-(propan-2-yl)[1,2,4]triazolo[1,5-c]quinazolin-5-yl]amino}azepan-2-one] | –
16 | 1.91e-08 | 3.54 | O=C1NCCCC[C@H]1Nc1nc2ccccc2c2nc(-c3cncc(C(F)(F)F)c3)nn12 [Example 362, (3R)-3-({2-[5-(trifluoromethyl)pyridin-3-yl][1,2,4]triazolo[1,5-c]quinazolin-5-yl}amino)azepan-2-one] | –
17 | > 2e-05 | 66.8 | CC[C@@H](Nc1nc2ccccc2c2nc(-c3cc(C(F)(F)F)cc(C(F)(F)F)c3)nn12)C(N)=O [Example 361, (2R)-2-({2-[3,5-bis(trifluoromethyl)phenyl][1,2,4]triazolo[1,5-c]quinazolin-5-yl}amino)butanamide] | –
18 | 1.29e-08 | 0.603 | CCNC(=O)C(CC)Nc1nc2ccccc2c2nc(-c3cccc(OC(F)(F)F)c3)nn12 (stereo not drawn) [Example 318, N-ethyl-2-({2-[3-(trifluoromethoxy)phenyl][1,2J4]triazolo[1,5-c]quinazolin-5-yl}amino)butanamide] | –
19 | 1.17e-09 | 2.09 | COc1ccc(-c2nc3c4cccc(Br)c4nc(N[C@H](C)C(=O)NCCN4CCOCC4)n3n2)cc1 [Example 781, N^2-[7-bromo-2-(4-methoxyphenyl)[1,2,4]triazolo[1,5-c]quinazolin-5-yl]-N-[2-(morpholin-4-yl)ethyl]-D-alaninamide] | –
20 | 3.41e-07 | 792 | Cc1cc2c(cc1C(F)F)nc(N[C@@H]1CCCCNC1=O)n1nc(-c3cnn(C)c3)nc21 [Example 405, (3R)-3-{[8-(difluoromethyl)-9-methyl-2-(1-methyl-1H-pyrazol-4-yl)[1,2,4]triazolo[1,5-c]quinazolin-5-yl]amino}azepan-2-one] | –
21 | 2.29e-07 | 953 | COc1cccc2c1nc(N[C@@H]1CCCCNC1=O)n1nc(-c3cnn(C)c3)nc21 [Example 752, (3R)-3-{[7-methoxy-2-(1-methyl-1H-pyrazol-4-yl)[1,2,4]triazolo[1,5-c]quinazolin-5-yl]amino}azepan-2-one] | –

Source: patent US20230113037A1 (Bayer Aktiengesellschaft, priority 2019, published 2023)
